{"source": "patent EP0119332A1", "about": "“Novel pyranose oxidase processes for the production and use thereof and test compositions for use therein” (priority 1983, dated 1984)", "assay_type_in_all_cases": "biochemical", "key": {"pyranose oxidase [1]": {"biological_target": "T1, pyranose oxidase (Trametes versicolor, UniProt P79076)", "T1 construct": "made in house; host or cells: Coriolus versicolor ATCC 20155, the native producer (not recombinant); Enzyme was purified from disrupted mycelium by HPA-75, Sepharose 4B and Sephadex G-100 columns", "assay": "Substrate specificity (relative activity on carbohydrates, peroxidase/4AA-phenol colour assay)", "conditions": "substrate: 0.1 ml of 100 mM carbohydrate liquor; enzyme 2.5 U/ml; percentage of the glucose reaction", "experimental": "A 3.0 ml sample is first prepared comprising 1.0 ml of 0.1 M tris-hydrochloride buffer (pH 7.0), 0.2 ml of a colouring reagent prepared in advance as hereinafter described, 0.1 ml of 1 M glucose solution, 0.1 ml of a solution of the pyranose oxidase at a known concentration, 0.1 ml of 0.1 mM flavinadenine dinucleotide and 1.5 ml of distilled water. Said colouring reagent is prepared by adding 0.1 M tris-hydrochloride buffer (pH 7.0) containing 10 m mol ℓ4-aminoantipyrine (hereinafter referred to as 4AA) and 10 m mol/Zphenol, to an amount of a peroxidase which is sufficient to provide a peroxidase concentration in said buffer of 2000 U per 100 mI. The pyranose oxidase containing sample is incubated at 37°C and the increasing rate of the absorbancy at 500 nm is automatically measured on a spectrophotometer. If the molecular extinction coefficient of a quinoneimine pigment formed under these conditions is defined as 5.3 x 10^3, and one unit of enzymatic activity is defined as the amount of the enzyme that produces one µ mole of hydrogen peroxide per minute at a temperature of 37°C and at a pH of 7.0, then the enzymatic activity (A) of the pyranose oxidase in the sample can be defined by the following formula:- [formula] where A500 is the rate of increase of the absorbancy of the sample per minute at 500nm.\nThe same reactions as described in the assay method for enzymatic activity were repeated except that an enzyme concentration of 2.5 U/ml was used, and, as the substrate, 0.1 ml samples of various carbohydrate liquors indicated in Table I were used, each such liquor having a concentration of 100 mM. […] The specificity with respect to the latter two, in particular being a great deal lower than that of the known pyranose oxidase derived from microorganisms of the genus Polyporus (Table 1 of B.B.A. 167, 501-510 (1968))."}, "pyranose oxidase [2]": {"biological_target": "T1, pyranose oxidase", "assay": "biochemical", "experimental": "Samples of the enzyme were dissolved in Tris buffer solutions have the pH indicated in Figure 2 to make up enzyme solutions having an activity of 250 mU/3.7 ml. Each of the enzyme solutions was put into a BIOXYGRAPH cell (trade name for a cell for measuring oxygen concentration made by Kyusui Kagaku Laboratory, Japan), and 50 µℓ of 1 M glucose were added. Measurements were made to determine the amount of absorbed oxygen.\nVarious inhibitors were studied in the same manner as that adopted in determination of the optimum pH. A reaction solution comprising 3.4 ml of 50 mM tris-hydrochloride buffer (pH 7.0), 0.1 ml of enzyme solutin containing 280 mU of pyranose oxidase and 0.2 ml of 18.5 mM inhibitor solution were put into a cell for measuring oxygen uptake and 50µℓof 1M glucose were added thereto and the sample incubated at 37°C."}, "pyranose oxidase [3]": {"biological_target": "T1, pyranose oxidase", "experimental": "In this phase, 1.4 ml of 50 mM tris-hydrochloride buffer (pH 7.0), 0.1. ml of 250 mU enzyme solution and 0.5 ml of electron acceptor solutions having various concentrations as indicated in Table 2 were put into a cell with Thunberg tube. After saturating with dissolved oxygen, the reaction solution was mixed with 0.5 ml of a 0.1 M glucose solution. The change in absorbancy per minute from 30 minutes to 90 minutes after mixing was determined and the activities of the electron acceptors are expressed as relative activity."}, "[4]": {"conditions": "0.2 ml of 18.5 mM inhibitor solution, 280 mU pyranose oxidase, pH 7.0, 37°C, 50 µl of 1M glucose"}, "[5]": {"conditions": "electron acceptor concentration 0.1 mM, pH 7.0, 250 mU enzyme solution, 0.1 M glucose solution"}}, "note": "Read-outs that look alike come from different tables or passages of the source.", "data": [{"compound": "OC[C@H]1O[C@H](O[C@H]2[C@H](O)[C@@H](O)[C@H](O)O[C@@H]2CO)[C@H](O)[C@@H](O)[C@@H]1O", "note": "[maltose]", "values": [{"measurement": "Relative Activity (%)", "setting": "pyranose oxidase [1]", "result": 0, "unit": "%"}]}, {"compound": "Oc1cccc2cccnc12", "note": "[8-hydroxyquinoline]", "values": [{"measurement": "Percent Inhibition (%)", "setting": "pyranose oxidase [2]; pH 7", "result": 13.3, "unit": "%"}]}, {"compound": "O=C(CO)[C@H](O)[C@@H](O)[C@H](O)CO", "note": "[sorbose]", "values": [{"measurement": "Relative Activity (%)", "setting": "pyranose oxidase [1]", "result": 3.4, "unit": "%"}]}, {"compound": "O=[N+]([O-])[O-].[Ag+]", "note": "[silver nitrate]", "values": [{"measurement": "Percent Inhibition (%)", "setting": "pyranose oxidase [2]; [4]", "result": 53.3, "unit": "%"}]}, {"compound": "copper sulfate", "values": [{"measurement": "Percent Inhibition (%)", "setting": "pyranose oxidase [2]; [4]", "result": 35.7, "unit": "%"}]}, {"compound": "Nitroprusside-tetrazolium", "values": [{"measurement": "Relative Activity (%)", "setting": "pyranose oxidase [3]; [5]", "result": 0, "unit": "%"}]}, {"compound": "O=C1C(Cl)=CC(=Nc2ccc(O)cc2)C=C1Cl", "note": "[2,6-Dichlorophenolindophenol]", "values": [{"measurement": "Relative Activity (%)", "setting": "pyranose oxidase [3]; electron acceptor concentration 0.04 mM, pH 7.0, 250 mU enzyme solution, 0.1 M glucose solution", "result": 2.5, "unit": "%"}]}, {"compound": "OO", "note": "[hydrogen peroxide]", "values": [{"measurement": "inhibition at 18500 µM", "setting": "pyranose oxidase [2]; pH 7, read-out: Percent Inhibition (%)", "result": 20, "unit": "%"}]}, {"compound": "cobalt sulfate", "values": [{"measurement": "Percent Inhibition (%)", "setting": "pyranose oxidase [2]; [4]", "result": 13.3, "unit": "%"}]}, {"compound": "OC[C@H]1O[C@@H](O[C@H]2[C@H](O)[C@@H](O)C(O)O[C@@H]2CO)[C@H](O)[C@@H](O)[C@H]1O", "note": "(stereo partly shown) [lactose]", "values": [{"measurement": "Relative Activity (%)", "setting": "pyranose oxidase [1]", "result": 0, "unit": "%"}]}, {"compound": "O=O", "note": "[Oxygen]", "values": [{"measurement": "electron acceptor suitability (in words)", "setting": "pyranose oxidase [3]", "result": "optimum electron acceptor"}, {"measurement": "Relative Activity (%)", "setting": "pyranose oxidase [3]; pH 7", "result": 100, "unit": "%"}]}, {"compound": "OC[C@@H](O)[C@@H](O)[C@H](O)[C@H](O)CO", "note": "[mannitol]", "values": [{"measurement": "Relative Activity (%)", "setting": "pyranose oxidase [1]", "result": 0, "unit": "%"}]}, {"compound": "OC[C@H]1O[C@H](O[C@H]2O[C@H](CO)[C@@H](O)[C@H](O)[C@H]2O)[C@H](O)[C@@H](O)[C@@H]1O", "note": "[trehalose]", "values": [{"measurement": "Relative Activity (%)", "setting": "pyranose oxidase [1]", "result": 0, "unit": "%"}]}, {"compound": "N[C@H]1C(O)O[C@H](CO)[C@@H](O)[C@@H]1O", "note": "(stereo partly shown) [glucosamine]", "values": [{"measurement": "Relative Activity (%)", "setting": "pyranose oxidase [1]", "result": 0, "unit": "%"}]}, {"compound": "O=C[C@H](O)[C@@H](O)[C@@H](O)[C@H](O)CO", "note": "[galactose]", "values": [{"measurement": "Relative Activity (%)", "setting": "pyranose oxidase [1]", "result": 0.9, "unit": "%"}]}, {"compound": "NC(=O)c1ccc[n+]([C@@H]2O[C@H](COP(=O)([O-])OP(=O)(O)OC[C@H]3O[C@@H](n4cnc5c(N)ncnc54)[C@H](OP(=O)(O)O)[C@@H]3O)[C@@H](O)[C@H]2O)c1", "note": "[Nicotinamide-adenine dinucleotide phosphate]", "values": [{"measurement": "Relative Activity (%)", "setting": "pyranose oxidase [3]; [5]", "result": 0, "unit": "%"}]}, {"compound": "NC(=O)c1ccc[n+]([C@@H]2O[C@H](COP(=O)([O-])OP(=O)(O)OC[C@H]3O[C@@H](n4cnc5c(N)ncnc54)[C@H](O)[C@@H]3O)[C@@H](O)[C@H]2O)c1", "note": "[Nicotinamide-adenine dinucleotide]", "values": [{"measurement": "Relative Activity (%)", "setting": "pyranose oxidase [3]; [5]", "result": 0, "unit": "%"}]}, {"compound": "magnesium sulfate", "values": [{"measurement": "Percent Inhibition (%)", "setting": "pyranose oxidase [2]; [4]", "result": 0, "unit": "%"}]}, {"compound": "O=C[C@H](O)[C@@H](O)[C@H](O)CO", "note": "[xylose]", "values": [{"measurement": "Relative Activity (%)", "setting": "pyranose oxidase [1]", "result": 2.6, "unit": "%"}]}, {"compound": "O=C(CO)[C@@H](O)[C@H](O)[C@H](O)CO", "note": "[fructose]", "values": [{"measurement": "Relative Activity (%)", "setting": "pyranose oxidase [1]", "result": 0, "unit": "%"}]}, {"compound": "O=C(O)[C@H](O)[C@@H](O)[C@H](O)[C@H](O)CO", "note": "[gluconic acid]", "values": [{"measurement": "Relative Activity (%)", "setting": "pyranose oxidase [1]", "result": 0, "unit": "%"}]}]}
